The values that follow come from patent US20050192356A1, “Synergistic anti-inflammatory pharmaceutical compositions and methods of use” (priority 2004, published 2005).

Each structure is given as a SMILES string. In brackets after ≈: the same amount, converted by molar mass. Where two headings read alike, the source gives them in different places.

For the experiment, the system named is PGE2 synthesis in AGS cells. As to the kind of experiment: PGE2 synthesis in the AGS human gastric mucosal cell model (A23187). The experiment is classed as cell-based. Here is the method:
Exponentially growing cells were seeded into 6-well plates and grown to confluence. A 20 μL aliquot of the supernatant media was sampled for determination of PGE2 content. Cells were then washed in PBS, scraped and lysed for immunoblotting.

[1] abbreviates: AGS cells, historical control values, read-out: AGS IC50 for PGE2 synthesis, historical control.

`CC(=O)Oc1ccccc1C(=O)O` [Aspirin]: the IC50 under setting [1] was found to be 0.52 µg/mL (≈ 2.89 µM) and the IC50 (AGS cells, test material 60 minutes prior to A23187, media removed 30 minutes later, average of three independent assays, read-out: AGS IC50 for PGE2 synthesis) was found to be 1.2 µg/mL (≈ 6.66 µM).

For the compound `Cc1ccc(-c2cc(C(F)(F)F)nn2-c2ccc(S(N)(=O)=O)cc2)cc1` [Celcoxib], under “AGS, read-out: AGS IC50 for PGE2 synthesis, historical control”, the IC50 is 0.024 µg/mL (≈ 0.0629 µM).

For the compound `CC(C)Cc1ccc(C(C)C(=O)O)cc1` (centres unmarked) [Ibuprofen], under setting [1], the IC50 amounted to 0.57 µg/mL (≈ 2.76 µM).

Consider `CS(=O)(=O)c1ccc(C2=C(c3ccccc3)C(=O)OC2)cc1` [Rofecoxib], for which, under setting [1], the IC50 was determined as 1.8 µg/mL (≈ 5.73 µM).
